Patent US11589603B2, “Powdered nutritional product containing branched-chain amino acids and a sugar alcohol” (Abbott Laboratories, priority 2015, dated 2023)
Values joined by “and” are separate entries in the source; they are usually repeats but may differ in a detail not shown here. Identical values can stand only once.

Columns and labels:
[1] = Example 5: effect of inositol isomers on dissolution of L-leucine, LC/UV of filtrate; format: physicochemical; conditions: for enhancement of dissolution rate of L-leucine by inositol isomer: 0.1 g isomer, 3.50 g L-leucine; for Leu dissolved at 30 seconds (g/16 oz.) / Leu dissolved at 60 seconds (% of total Leu) / Leu dissolved at 60 seconds (g/16 oz.): 3.50 g L-leucine with 0.1 g/16 oz. inositol isomer, water 21° C., 400 rpm
Description: The LC/UV system used to perform the tests comprised the following: 1) Column: YMC ODS-AQ, 4.6 x 250 mm, 5 μm, Waters […]; 2) Mobile Phase: Milli-Q Plus water; 3) Flow Rate: 0.4 mL/minute; 4) Temperature: 40° C.; 5) Detection: UV at 192 nm; 6) Injection: 2 μL of filtrate; and 7) Run Time: 20 minutes.

[2] = Example 4: aqueous dissolution of branched-chain amino acids in a powdered nutritional product with varying myo-inositol, LC/UV of filtrate; format: physicochemical; conditions: powdered nutritional product; particularly evident at 30 seconds across all concentrations
Description: The LC/UV system used to perform the tests comprised the following: 1) Column: YMC ODS-AQ, 4.6 x 250 mm, 5 μm, Waters P/N AQ12S052546WT; 2) Mobile Phase: Milli-Q Plus water; 3) Flow Rate: 0.4 mL/minute; 4) Temperature: 40° C.; 5) Detection: UV at 192 nm; 6) Injection: 2 μL of filtrate; and 7) Run Time: 20 minutes.
Example 4 evaluates the effect that myo-inositol concentration has on the aqueous dissolution of branched-chain amino acids (valine, isoleucine, and leucine) in a powdered nutritional product. One serving (17.6 grams) of the powdered nutritional product contains 7.00 grams of a branched-chain amino acid blend comprising 50 wt. % leucine, 25 wt. % isoleucine, and 25 wt. % valine. A serving of the powdered nutritional product with a specified amount of myo-inositol was added to 16 fluid ounces of Milli-Q Plus water at 21° C. and stirred at 400 rpm. At each specified time point, an aliquot was obtained and filtered through a 0.45 μm PTFE membrane (Pall Life Sciences, Acrodisc CR 25, P/N 4501), and the filtrate was tested for valine, isoleucine, and leucine using the LC/UV method as described in Example 3.

| Compound | enhancement of dissolution rate of L-leucine by inositol isomer [1] | Leu dissolved at 30 seconds (g/16 oz.) [1] | Leu dissolved at 60 seconds (% of total Leu) [1] | Leu dissolved at 60 seconds (g/16 oz.) [1] | effect of addition of myo-inositol on rate of dissolution of the branched-chain amino acids [2] |
| --- | --- | --- | --- | --- | --- |
| OC1C(O)C(O)C(O)C(O)C1O (stereo not drawn) [cis-inositol] | most enhanced | 0.649 g/16 oz. | 36.3 % of total Leu | 1.27 g/16 oz. |  |
| O[C@H]1[C@H](O)[C@@H](O)[C@H](O)[C@@H](O)[C@@H]1O [scyllo-inositol] |  | 0.450 g/16 oz. | 24.0 % of total Leu | 0.841 g/16 oz. |  |
| OC1C(O)C(O)C(O)C(O)C1O (stereo not drawn) [allo-inositol] | most enhanced | 0.792 g/16 oz. | 40.4 % of total Leu | 1.41 g/16 oz. |  |
| OC1C(O)C(O)C(O)C(O)C1O (stereo not drawn) [muco-inositol] |  | 0.379 g/16 oz. | 21.5 % of total Leu | 0.751 g/16 oz. |  |
| O[C@H]1[C@H](O)[C@@H](O)[C@H](O)[C@@H](O)[C@H]1O [myo-inositol] |  | 0.465 g/16 oz. and 0.495 g/16 oz. | 23.9 % of total Leu and 22.3 % of total Leu | 0.838 g/16 oz. and 0.781 g/16 oz. | enhanced the rate of dissolution |
